According to patent publication EP2468718A1, “Cabanillasin, a new antifungal compound, produced by entomopathogenic xenorhabdus cabanillasii” (Nosopharm, priority 2010, dated 2012):
Where two headings read alike, the source gives them in different places.

Key:
Candida krusei ATCC 6258 = test: Antifungal susceptibility testing, NCCLS M27-A2 broth microdilution (yeasts); assay type: cell-based; details: Pichia kudriavzevii, ATCC6258, read-out: % of growth inhibition
Description: (§1) Cabanillasin activity was tested against different fungal human pathogens: ascomycetes yeasts (Candida albicans ATCC 90029, Candida Glabrata ATCC 90030, Candida krusei ATCC 6258 and Candida lusitaniae CBS 6936), basidiomycetes yeasts (Cryptococcus neoformans clinical strain), ascomycetes filamentous fungi (Aspergilus fumigatus clinical strain, Fusarium oxysporum clinical strain) and zygomycetes filamentous fungi (Rhizopus oryzae environemental strain) by the M38-A microdilution method with RPMI 1640 medium (RPMI 1640, MOPS 160 mM, glucose 18 g/L, pH 7) as recommended in the […]. The NCCLS M27-A2 broth microdilution method (NCCLS) was used when yeasts were tested.
(§2) Yeasts and filamentous inoculi were prepared on YPD medium (yeast extract 10 g/L, peptone 10 g/L and glucose 20 g/L) and Malt medium (malt extract 20 g/L) respectively. The densities of inoculi were adjusted by dilution in RPMI 1640 broth to a value ranged from 5.10^2 to 5.10^3 CFU/mL for yeasts isolates and 5.10^3 to 5.10^4 CFU/mL for filamentous fungi. Microdilution trays (96 U-bottom shaped) containing 190 µL fungal inoculum were added with 10 µL Cabanillasin solution (final concentration ranging from 50 to 0.098 mg/L for all fungi). After inoculation of the trays, all microdilution trays were incubated at 35°C in ambient air. The culture absorbance was measured at 600 nm, 24 h and 48 h after the beginning of the experiments for the yeasts and 48 h and 72 h after the beginning of the experiments for filamentous fungi and Cryptococcus neoformans. The activity results correspond to a percentage of growth inhibition ((1-Abs600 nm culture with Cabanillasin)/ Abs600 nm culture without Cabanillasin) x 100.
(§3) The IC50 value is the concentration at which inhibition of growth is equal to 50%. MICs for Candida species were determined at 24 h and 48 h and corresponded to 100% of growth inhibition. Amphotericin B was provided as standard (final concentration ranging from 16 to 0.03 mg/L for all fungi). Experiments were done in duplicate.

[1] = tested on: Candida lusitaniae CBS 6936; test: as above; assay type: cell-based; details: Clavispora lusitaniae, CBS6936, read-out: % of growth inhibition
Description: as §1, §2, §3

[2] = tested on: Aspergilus fumigatus clinical strain; test: Antifungal susceptibility testing, M38-A microdilution method (filamentous fungi); assay type: cell-based, Aspergillus fumigatus; details: Aspergillus fumigatus, read-out: % of growth inhibition
Description: as §1, §2, §3

[3] = tested on: Fusarium oxysporum clinical strain; test: as above; assay type: cell-based; details: read-out: % of growth inhibition
Description: as §1, §2, §3

[4] = tested on: Rhizopus oryzae environemental strain; test: as above; assay type: cell-based; details: Rhizopus arrhizus, read-out: % of growth inhibition
Description: as §1, §2, §3

SMILES: C[C@@H]1[C@H](O)[C@@H](C)/C=C/C=C/C=C/C=C/C=C/C=C/C=C/[C@H](O[C@@H]2O[C@H](C)[C@@H](O)[C@H](N)[C@@H]2O)C[C@@H]2O[C@](O)(C[C@@H](O)C[C@@H](O)[C@H](O)CC[C@@H](O)C[C@@H](O)CC(=O)O[C@H]1C)C[C@H](O)[C@H]2C(=O)O [Amphotericin B, reference compound]
- inhibition at 0.03 µg/mL (Candida krusei ATCC 6258; 24 h incubation): 0%
- inhibition at 0.03 µg/mL (Candida krusei ATCC 6258; 48 h incubation): 25%
- inhibition at 0.06 µg/mL (Candida krusei ATCC 6258; 24 h incubation): 48.4%
- inhibition at 0.06 µg/mL (Candida krusei ATCC 6258; 48 h incubation): 48%
- inhibition at 0.12 µg/mL (Candida krusei ATCC 6258; 24 h incubation): 100%
- inhibition at 0.12 µg/mL (Candida krusei ATCC 6258; 48 h incubation): 76.7%
- inhibition at 0.25 µg/mL (Candida krusei ATCC 6258; 24 h incubation): 100%
- inhibition at 0.25 µg/mL (Candida krusei ATCC 6258; 48 h incubation): 100%
- inhibition at 0.5 µg/mL (Candida krusei ATCC 6258; 24 h incubation): 100%
- inhibition at 0.5 µg/mL (Candida krusei ATCC 6258; 48 h incubation): 100%
- inhibition at 1 µg/mL (Candida krusei ATCC 6258; 24 h incubation): 100%
- inhibition at 1 µg/mL (Candida krusei ATCC 6258; 48 h incubation): 100%
- inhibition at 2 µg/mL (Candida krusei ATCC 6258; 24 h incubation): 100%
- inhibition at 2 µg/mL (Candida krusei ATCC 6258; 48 h incubation): 100%
- inhibition at 4 µg/mL (Candida krusei ATCC 6258; 24 h incubation): 100%
- inhibition at 4 µg/mL (Candida krusei ATCC 6258; 48 h incubation): 100%
- inhibition at 8 µg/mL (Candida krusei ATCC 6258; 24 h incubation): 100%
- inhibition at 8 µg/mL (Candida krusei ATCC 6258; 48 h incubation): 100%
- inhibition at 16 µg/mL (Candida krusei ATCC 6258; 24 h incubation): 100%
- inhibition at 16 µg/mL (Candida krusei ATCC 6258; 48 h incubation): 100%
- inhibition at 0.03 µg/mL ([1]; 24 h incubation): 19%
- inhibition at 0.03 µg/mL ([1]; 48 h incubation): 11.2%
- inhibition at 0.06 µg/mL ([1]; 24 h incubation): 63%
- inhibition at 0.06 µg/mL ([1]; 48 h incubation): 45.4%
- inhibition at 0.12 µg/mL ([1]; 24 h incubation): 100%
- inhibition at 0.12 µg/mL ([1]; 48 h incubation): 84.5%
- inhibition at 0.25 µg/mL ([1]; 24 h incubation): 100%
- inhibition at 0.25 µg/mL ([1]; 48 h incubation): 100%
- inhibition at 0.5 µg/mL ([1]; 24 h incubation): 100%
- inhibition at 0.5 µg/mL ([1]; 48 h incubation): 100%
- inhibition at 1 µg/mL ([1]; 24 h incubation): 100%
- inhibition at 1 µg/mL ([1]; 48 h incubation): 100%
- inhibition at 2 µg/mL ([1]; 24 h incubation): 100%
- inhibition at 2 µg/mL ([1]; 48 h incubation): 100%
- inhibition at 4 µg/mL ([1]; 24 h incubation): 100%
- inhibition at 4 µg/mL ([1]; 48 h incubation): 100%
- inhibition at 8 µg/mL ([1]; 24 h incubation): 100%
- inhibition at 8 µg/mL ([1]; 48 h incubation): 100%
- inhibition at 16 µg/mL ([1]; 24 h incubation): 100%
- inhibition at 16 µg/mL ([1]; 48 h incubation): 100%
- inhibition at 0.03 µg/mL ([2]; 48 h incubation): 3%
- inhibition at 0.03 µg/mL ([2]; 72 h incubation): 0%
- inhibition at 0.06 µg/mL ([2]; 48 h incubation): 33.5%
- inhibition at 0.06 µg/mL ([2]; 72 h incubation): 0%
- inhibition at 0.12 µg/mL ([2]; 48 h incubation): 37.2%
- inhibition at 0.12 µg/mL ([2]; 72 h incubation): 41.5%
- inhibition at 0.25 µg/mL ([2]; 48 h incubation): 100%
- inhibition at 0.25 µg/mL ([2]; 72 h incubation): 85.2%
- inhibition at 0.5 µg/mL ([2]; 48 h incubation): 100%
- inhibition at 0.5 µg/mL ([2]; 72 h incubation): 100%
- inhibition at 1 µg/mL ([2]; 48 h incubation): 100%
- inhibition at 1 µg/mL ([2]; 72 h incubation): 100%
- inhibition at 2 µg/mL ([2]; 48 h incubation): 100%
- inhibition at 2 µg/mL ([2]; 72 h incubation): 100%
- inhibition at 4 µg/mL ([2]; 48 h incubation): 100%
- inhibition at 4 µg/mL ([2]; 72 h incubation): 100%
- inhibition at 8 µg/mL ([2]; 48 h incubation): 100%
- inhibition at 8 µg/mL ([2]; 72 h incubation): 100%
- inhibition at 16 µg/mL ([2]; 48 h incubation): 100%
- inhibition at 16 µg/mL ([2]; 72 h incubation): 100%
- inhibition at 0.03 µg/mL ([3]; 48 h incubation): 14%
- inhibition at 0.03 µg/mL ([3]; 72 h incubation): 0%
- inhibition at 0.06 µg/mL ([3]; 48 h incubation): 26.3%
- inhibition at 0.06 µg/mL ([3]; 72 h incubation): 0%
- inhibition at 0.12 µg/mL ([3]; 48 h incubation): 39.8%
- inhibition at 0.12 µg/mL ([3]; 72 h incubation): 24.6%
- inhibition at 0.25 µg/mL ([3]; 48 h incubation): 65.2%
- inhibition at 0.25 µg/mL ([3]; 72 h incubation): 49.8%
- inhibition at 0.5 µg/mL ([3]; 48 h incubation): 100%
- inhibition at 0.5 µg/mL ([3]; 72 h incubation): 90.2%
- inhibition at 1 µg/mL ([3]; 48 h incubation): 100%
- inhibition at 1 µg/mL ([3]; 72 h incubation): 100%
- inhibition at 2 µg/mL ([3]; 48 h incubation): 100%
- inhibition at 2 µg/mL ([3]; 72 h incubation): 100%
- inhibition at 4 µg/mL ([3]; 48 h incubation): 100%
- inhibition at 4 µg/mL ([3]; 72 h incubation): 100%
- inhibition at 8 µg/mL ([3]; 48 h incubation): 100%
- inhibition at 8 µg/mL ([3]; 72 h incubation): 100%
- inhibition at 16 µg/mL ([3]; 48 h incubation): 100%
- inhibition at 16 µg/mL ([3]; 72 h incubation): 100%
- inhibition at 0.03 µg/mL ([4]; 48 h incubation): 26.7%
- inhibition at 0.03 µg/mL ([4]; 72 h incubation): 0%
- inhibition at 0.06 µg/mL ([4]; 48 h incubation): 35%
- inhibition at 0.06 µg/mL ([4]; 72 h incubation): 0%
- inhibition at 0.12 µg/mL ([4]; 48 h incubation): 22%
- inhibition at 0.12 µg/mL ([4]; 72 h incubation): 0%
- inhibition at 0.25 µg/mL ([4]; 48 h incubation): 43.9%
- inhibition at 0.25 µg/mL ([4]; 72 h incubation): 12%
- inhibition at 0.5 µg/mL ([4]; 48 h incubation): 47.4%
- inhibition at 0.5 µg/mL ([4]; 72 h incubation): 62.1%
- inhibition at 1 µg/mL ([4]; 48 h incubation): 92.2%
- inhibition at 1 µg/mL ([4]; 72 h incubation): 66%
- inhibition at 2 µg/mL ([4]; 48 h incubation): 100%
- inhibition at 2 µg/mL ([4]; 72 h incubation): 77.4%
- inhibition at 4 µg/mL ([4]; 48 h incubation): 100%
- inhibition at 4 µg/mL ([4]; 72 h incubation): 100%
- inhibition at 8 µg/mL ([4]; 48 h incubation): 100%
- inhibition at 8 µg/mL ([4]; 72 h incubation): 100%
- inhibition at 16 µg/mL ([4]; 48 h incubation): 100%
- inhibition at 16 µg/mL ([4]; 72 h incubation): 100%
